Measurements as given in patent USRE47302E1 (ONYX THERAPEUTICS INC., priority 2013, dated 2019).
Converted amounts (≈) assume the structure as drawn.

Assay: Solubility pH 7
Settings: for solubility: pH 7, aqueous buffer

Row | SMILES | solubility | Solubility pH 7 (μg/mL) (pH 7)
1 | COc1ccc(C[C@H](NC(=O)[C@H](C)NC(=O)CN2CCOCC2)C(=O)N[C@@H](CN2CCCC2=O)C(=O)[C@@]2(C)CO2)cc1 [Compound C-1042, (S)-3-(4-methoxyphenyl)-N-((S)-1-((R)-2-methyloxiran-2-yl)-1-oxo-3-(2-oxopyrrolidin-1-yl)propan-2-yl)-2-((S)-2-(2-morpholinoacetamido)propanamido)propanamide] | 8780 µg/mL (≈ 14.9 mM) | 
2 | COc1ccc(C[C@H](NC(=O)[C@H](C)NC(=O)CN2CCNC(=O)C2)C(=O)N[C@@H](CC2=CCCC2)C(=O)[C@@]2(C)CO2)cc1 [Compound C-1120, (S)-N-((S)-3-(cyclopent-1-en-1-yl)-1-((R)-2-methyloxiran-2-yl)-1-oxopropan-2-yl)-3-(4-methoxyphenyl)-2-((S)-2-(2-(3-oxopiperazin-1-yl)acetamido)propanamido)propanamide] | 8000 µg/mL (≈ 13.7 mM) | 
3 | COc1ccc(C[C@H](NC(=O)[C@@H](C)NC(=O)[C@H]2CC[C@H](O)CC2)C(=O)N[C@@H](CC2CC(F)(F)C2)C(=O)[C@@]2(C)CO2)cc1 [Compound C-1073, (1r,4R)-N-((R)-1-(((S)-1-(((S)-3-(3,3-difluorocyclobutyl)-1-((R)-2-methyloxiran-2-yl)-1-oxopropan-2-yl)amino)-3-(4-methoxyphenyl)-1-oxopropan-2-yl)amino)-1-oxopropan-2-yl)-4-hydroxycyclohexanecarboxamide] | 2180 µg/mL (≈ 3.67 mM) | 
4 | COc1ccc(C[C@H](NC(=O)[C@H](C)NC(=O)CN2CCOCC2)C(=O)N[C@@H](CC2CC(F)(F)C2)C(=O)[C@@]2(C)CO2)cc1 [Compound C-1093, (S)-N-((S)-3-(3,3-difluorocyclobutyl)-1-((R)-2-methyloxiran-2-yl)-1-oxopropan-2-yl)-3-(4-methoxyphenyl)-2-((S)-2-(2-morpholinoacetamido)propanamido)propanamide] | 6110 µg/mL (≈ 10.3 mM) | 
5 | COc1ccc(C[C@H](NC(=O)[C@@H](C)NC(=O)[C@@H]2CNC(=O)C2)C(=O)N[C@@H](CC2CCCC2)C(=O)[C@@]2(C)CO2)cc1 [Compound C-1068, (S)-N-((R)-1-(((S)-1-(((S)-3-cyclopentyl-1-((R)-2-methyloxiran-2-yl)-1-oxopropan-2-yl)amino)-3-(4-methoxyphenyl)-1-oxopropan-2-yl)amino)-1-oxopropan-2-yl)-5-oxopyrrolidine-3-carboxamide] | 4410 µg/mL (≈ 7.92 mM) | 
6 | C[C@H](NC(=O)CN1CCOCC1)C(=O)N[C@@H](Cc1ccc2c(c1)CCNS2(=O)=O)C(=O)N[C@@H](CC1CCCC1)C(=O)[C@@]1(C)CO1 [Compound C-1091, (S)-N-((S)-3-cyclopentyl-1-((R)-2-methyloxiran-2-yl)-1-oxopropan-2-yl)-3-(1,1-dioxido-3,4-dihydro-2H-benzo[e][1,2]thiazin-6-yl)-2-((S)-2-(2-morpholinoacetamido)propanamido)propanamide] | 230 µg/mL (≈ 0.356 mM) | 
7 | COc1ccc(C[C@H](NC(=O)[C@H](C)NC(=O)CN2CCS(=O)(=O)CC2)C(=O)N[C@@H](CC2=CCCC2)C(=O)[C@@]2(C)CO2)cc1 [Compound C-1115, (S)-N-((S)-3-(cyclopent-1-en-1-yl)-1-((R)-2-methyloxiran-2-yl)-1-oxopropan-2-yl)-2-((S)-2-(2-(1,1-dioxidothiomorpholino)acetamido)propanamido)-3-(4-methoxyphenyl)propanamide] | 496 µg/mL (≈ 0.801 mM) | 
8 | COc1ccc(C[C@H](NC(=O)[C@@H](C)NC(=O)[C@@H]2CC[C@H](O)C2)C(=O)N[C@@H](CC2CCCC2)C(=O)[C@@]2(C)CO2)cc1 [Compound C-1078, (1R,3S)-N-((R)-1-(((S)-1-(((S)-3-cyclopentyl-1-((R)-2-methyloxiran-2-yl)-1-oxopropan-2-yl)amino)-3-(4-methoxyphenyl)-1-oxopropan-2-yl)amino)-1-oxopropan-2-yl)-3-hydroxycyclopentanecarboxamide] | 873 µg/mL (≈ 1.57 mM) | 
9 | COc1ccc(C[C@H](NC(=O)[C@H](C)NC(=O)CN2CCOCC2)C(=O)N[C@@H](C[C@H]2CCOC2)C(=O)[C@@]2(C)CO2)cc1 [Compound C-1025, (S)-3-(4-methoxyphenyl)-N-((S)-1-((R)-2-methyloxiran-2-yl)-1-oxo-3-((S)-tetrahydrofuran-3-yl)propan-2-yl)-2-((S)-2-(2-morpholinoacetamido)propanamido) propanamide] |  | >10 μg/mL
10 | C[C@H](NC(=O)CN1CCOCC1)C(=O)N[C@@H](Cc1ccc2c(c1)CCS(=O)(=O)N2)C(=O)N[C@@H](CC1CCCC1)C(=O)[C@@]1(C)CO1 [Compound C-1102, (S)-N-((S)-3-cyclopentyl-1-((R)-2-methyloxiran-2-yl)-1-oxopropan-2-yl)-3-(2,2-dioxido-3,4-dihydro-1H-benzo[c][1,2]thiazin-6-yl)-2-((S)-2-(2-morpholinoacetamido)propanamido)propanamide] | 3410 µg/mL (≈ 5.26 mM) | 
11 | COc1ccc(C[C@H](NC(=O)[C@H](C)NC(=O)CN2CCOCC2)C(=O)N[C@@H](C[C@H]2C[C@@H]3C[C@@H]3C2)C(=O)[C@@]2(C)CO2)cc1 [Compound C-1094, (S)-N-((S)-3-((1R,3s,5S)-bicyclo[3.1.0]hexan-3-yl)-1-((R)-2-methyloxiran-2-yl)-1-oxopropan-2-yl)-3-(4-methoxyphenyl)-2-((S)-2-(2-morholinoacetamido)propanamido)propanamide] | 1670 µg/mL (≈ 2.86 mM) | 
12 | C[C@H](NC(=O)CN1CCOCC1)C(=O)N[C@@H](Cc1ccc2c(c1)CCC(=O)N2)C(=O)N[C@@H](CC1CCCC1)C(=O)[C@@]1(C)CO1 [Compound C-1086, (S)-N-((S)-3-cyclopentyl-1-((R)-2-methyloxiran-2-yl)-1-oxopropan-2-yl)-2-((S)-2-(2-morpholinoacetamido)propanamido)-3-(2-oxo-1,2,3,4-tetrahydroquinolin-6-yl)propanamide] | 3860 µg/mL (≈ 6.32 mM) | 
13 | COc1ccc(C[C@H](NC(=O)[C@H](C)NC(=O)CN2CCOCC2)C(=O)N[C@@H](C[C@@H]2CCCO2)C(=O)[C@@]2(C)CO2)cc1 [Compound C-1016, (S)-3-(4-methoxyphenyl)-N-((S)-1-((R)-2-methyloxhan-2-yl)-1-oxo-3-((S)-tetrahydrofuran-2-yl)propan-2-yl)-2-((S)-2-(2-morpholinoacetamido)propanamido)propanamide] | 6890 µg/mL (≈ 12 mM) | 
14 | COc1ccc(C[C@H](NC(=O)[C@@H](C)NC(=O)[C@H]2CNC(=O)C2)C(=O)N[C@@H](CC2CCCC2)C(=O)[C@@]2(C)CO2)cc1 [Compound C-1067, (R)-N-((R)-1-(((S)-1-(((S)-3-cyclopentyl-1-((R)-2-methyloxiran-2-yl)-1-oxopropan-2-yl)amino)-3-(4-methoxyphenyl)-1-oxopropan-2-yl)amino)-1-oxopropan-2-yl)-5-oxopyrrolidine-3-carboxamide] | 4590 µg/mL (≈ 8.25 mM) | 
15 | C[C@H](NC(=O)CN1CCOCC1)C(=O)N[C@@H](Cc1ccc2c(c1)CNC(=O)O2)C(=O)N[C@@H](CC1CCCC1)C(=O)[C@@]1(C)CO1 [Compound C-1108, (S)-N-((S)-3-cyclopentyl-1-((R)-2-methyloxiran-2-yl)-1-oxopropan-2-yl)-2-((S)-2-(2-morpholinoacetamido)propanamido)-3-(2-oxo-3,4-dihydro-2H-benzo[e][1,3]oxazin-6-yl)propanamide] | 4730 µg/mL (≈ 7.71 mM) | 

Results, then the compound that gave them:

Row | solubility | Solubility pH 7 (μg/mL) (pH 7) | SMILES
16 | 1900 µg/mL (≈ 3.46 mM) |  | COc1ccc(C[C@H](NC(=O)[C@H](C)NC(=O)C2CN(C)C2)C(=O)N[C@@H](Cc2ccccc2)C(=O)[C@@]2(C)CO2)cc1 [Compound C-1172, N-((S)-1-(((S)-3-(4-methoxyphenyl)-1-(((S)-1-((R)-2-methyloxiran-2-yl)-1-oxo-3-phenylpropan-2-yl)amino)-1-oxopropan-2-yl)amino)-1-oxopropan-2-yl)-1-methylazetidine-3-carboxamide]
17 | 2150 µg/mL (≈ 3.8 mM) |  | COc1ccc(C[C@H](NC(=O)[C@H](C)NC(=O)[C@@H]2CCCN2C)C(=O)N[C@@H](Cc2ccccc2)C(=O)[C@@]2(C)CO2)cc1 [Compound C-1165]
18 | 1140 µg/mL (≈ 1.95 mM) |  | Cc1ccc(C[C@H](NC(=O)[C@H](C)NC(=O)CN2CCOCC2)C(=O)N[C@@H](CC2=CCCCC2)C(=O)[C@@]2(C)CO2)cc1O [Compound C-1130, (S)-N-((S)-3-(cyclohex-1-en-1-yl)-1-((R)-2-methyloxiran-2-yl)-1-oxopropan-2-yl)-3-(3-hydroxy-4-methylphenyl)-2-((S)-2-(2-morpholinoacetamido)propanamido)propanamide]
19 | 56.5 µg/mL (≈ 0.0971 mM) |  | C[C@H](NC(=O)CN1CCOCC1)C(=O)N[C@@H](Cc1ccc2cc[nH]c2c1)C(=O)N[C@@H](CC1CCCC1)C(=O)[C@@]1(C)CO1 [Compound C-1124, (S)-N-((S)-3-cyclopentyl-1-((R)-2-methyloxiran-2-yl)-1-oxopropan-2-yl)-3-(1H-indol-6-yl)-2-((S)-2-(2-morpholinoacetamido)propanamido)propanamide]
20 | 9010 µg/mL (≈ 15.8 mM) |  | COc1cc(C[C@H](NC(=O)[C@H](C)NC(=O)CN2CCOCC2)C(=O)N[C@@H](CC2=CCCC2)C(=O)[C@@]2(C)CO2)ccn1 [Compound C-1141, (S)-N-((S)-3-(Cyclopent-1-en-1-yl)-1-((R)-2-methyloxiran-2-yl)-1-oxopropan-2-yl)-3-(2-methoxypyridin-4-yl)-2-((S)-2-(2-morpholinoacetamido)propanamido)propanamide]
21 | 172 µg/mL (≈ 0.289 mM) |  | C#CC[C@H](NC(=O)CN1CCOCC1)C(=O)N[C@@H](Cc1ccc(OC)cc1)C(=O)N[C@@H](CC1=CCCC1)C(=O)[C@@]1(C)CO1 [Compound C-1139, (S)-N-((S)-1-(((S)-3-(Cyclopent-1-en-1-yl)-1-((R)-2-methyloxiran-2-yl)-1-oxopropan-2-yl)amino)-3-(4-methoxyphenyl)-1-oxopropan-2-yl)-2-(2-morpholinoacetamido)pent-4-ynamide]
22 | 159 µg/mL (≈ 0.254 mM) |  | COc1ccc(C[C@H](NC(=O)[C@@H](NC(=O)CN2CCOCC2)C(F)(F)F)C(=O)N[C@@H](CC2=CCCC2)C(=O)[C@@]2(C)CO2)cc1 [Compound C-1132, (R)-N-((S)-1-(((S)-3-(cyclopent-1-en-1-yl)-1-((R)-2-methyloxiran-2-yl)-1-oxopropan-2-yl)amino)-3-(4-methoxyphenyl)-1-oxopropan-2-yl)-3,3,3-trifluoro-2-(2-morpholinoacetamido)propanamide]
23 | 7280 µg/mL (≈ 11.5 mM) |  | C[C@H](NC(=O)CN1CCOCC1)C(=O)N[C@@H](Cc1ccc(S(C)(=O)=O)cc1)C(=O)N[C@@H](CC1=CCCCC1)C(=O)[C@@]1(C)CO1 [Compound C-1126, (S)-N-((S)-3-(cyclohex-1-en-1-yl)-1-((R)-2-methyloxiran-2-yl)-1-oxopropan-2-yl)-3-(4-(methylsulfonyl)phenyl)-2-((S)-2-(2-morpholinoacetamido)propanamido)propanamide]
